Several values for one entry are separate records, joined by “and”; a condition that tells them apart may be missing. Equal values may be shown once. Square brackets hold non-standard residues; d marks the D form. Peptide text beside a SMILES is read from it.
Columns and labels:
[1] = tested on: Trex1 knockdown L929 cells; assay: qPCR of Ifnb1 and Cxcl10 mRNA after Trex1 siRNA; type: cell-based, mouse
Procedure: The indicated cells were stimulated with either ISD (Sangon Biotech), HSV-1 (Provided by Dr. Zhengfan Jiang), HSV60mer (Sangon Biotech), SATE-cddA[70], 2’3’-cGAMP (Invivogen, Cat# tlrl-nacga23-1), ADU-S100 (MedChemExpress, Cat# HY-12885A) or Poly(I:C) (Invivogen, Cat# tlrl-pic) after XQ2 or XQ2B treatment. Total RNA was isolated from indicated cells that incubated with the drugs for indicated time or mice tissues by using NucleoZOL reagent (MACHEREY-NAGEL) according to the manufacturer’s instructions. The quantifications of mRNA levels were carried out by real-time PCR using a PerfectStart® Uni RT&qPCR Kit (TransGen Biotech) on the QuantStudio 5 qPCR machine (Applied Biosystems). Samples were carried out in triplicate and the target CT values were normalized to GAPDH CT values. Primers of qPCR used in this study can be found in Supplementary Table S2.
siRNA of TREX1 (siTREX1) was transfected into the indicated cells by Lipofectamine RNAiMAX (Invitrogen) according to the manufacturer’s instructions. Human siTREX1, mouse siTrex1 and negative control siRNAs were purchased from Sangon Biotech. The sequences of siRNAs oligonucleotides can be found in Supplementary Table S2.
Supplementary Fig. 9. XQ2B reduces interferon expression induced by Trex1 deficiency. […]
Trex1 knockdown L929 cells were treated with DMSO or XQ2B (20 μM) for 24 h, and the mRNA levels of Trex1 (c),
Ifnb1 and Cxcl10 (d) mRNA was measured by qPCR. (c) p < 0.0001, (d) p = 0.003 (Ifnb1); p = 0.0003 (Cxcl10). (e, f) […]
Source data are provided as a Source Data file.

[2] = Pharmacokinetics after intravenous administration; settings: C57BL/6, mouse, whole blood, 10 mg/kg
Procedure: Whole blood samples were collected in EDTA-K2 surface-coated tubes at 0.083, 0.25, 0.5, 1, 2, 5, 7, 24 h post administration. The results were analyzed by LC-MS.

[3] = tested on: HSV-1-infected THP1 cells; assay: qPCR of IFNB1/CXCL10/IL6 mRNA in THP1 cells stimulated by HSV-1 infection; type: cell-based, human; settings: HSV-1, XQ2B

CC(C)C[C@@H]1NC(=O)[C@H](CCCNC(=N)N)NC(=O)[C@H](C(C)C)NC(=O)[C@@H]2CCCN2C(=O)[C@@H](Cc2ccccc2)NC(=O)[C@H](CC(C)C)NC(=O)[C@H](CCCNC(=N)N)NC(=O)[C@H]([C@@H](C)O)NC(=O)[C@H](C)NC(=O)[C@@H](Cc2ccccc2)NC1=O [XQ2B] (cyclo([dF]ATRL[dF]PVRL))
Relative mRNA level Cxcl10 ([1]; Fig. S9d, Trex1 knockdown (siTrex1 +) L929 cells, XQ2B +, individual replicates, siTrex1 alone 5.56-7.04): 1.176 and 1.276 and 1.118 | Relative mRNA level Ifnb1 ([1]; Fig. S9d, Trex1 knockdown (siTrex1 +) L929 cells, XQ2B +, individual replicates, siTrex1 alone 23.9-27.1): 15.103 and 18.4861 and 15.5105 | expression of Ifnb1, Cxcl10 with Trex1-siRNA ([1]; L929, 20 μM, 24 h): markedly inhibited the expression of these genes in mouse L929 and human THP1 cells with Trex1-siRNA | AUC(0-inf) [2]: 157 µg·h/mL | AUC(0-t) [2]: 135 µg·h/mL | Cmax [2]: 105 µg/mL | MRT last [2]: 72 min | Tmax [2]: 4.98 min | Vd [2]: 0.095 L/kg | clearance [2]: 0.071 L/h/kg | IFNB1 mRNA level (Fig. S7c) [3]: 7.282 and 8.679 and 8.662
